The record followed here is patent publication US20060242739A1, “Plant nucleotide-sugar pyrophosphatase/phosphodiesterase (nppase), method of obtaining same and use of same in the production of assay devices and in the production of transgenic plants” (Universidad Publica De Navarra, priority 2002, published 2006).

Experiment [1] has as its target T1, NPPase from barley leaves (Hordeum vulgare, UniProt Q687E1).
T1 sequence (Q687E1 19-368): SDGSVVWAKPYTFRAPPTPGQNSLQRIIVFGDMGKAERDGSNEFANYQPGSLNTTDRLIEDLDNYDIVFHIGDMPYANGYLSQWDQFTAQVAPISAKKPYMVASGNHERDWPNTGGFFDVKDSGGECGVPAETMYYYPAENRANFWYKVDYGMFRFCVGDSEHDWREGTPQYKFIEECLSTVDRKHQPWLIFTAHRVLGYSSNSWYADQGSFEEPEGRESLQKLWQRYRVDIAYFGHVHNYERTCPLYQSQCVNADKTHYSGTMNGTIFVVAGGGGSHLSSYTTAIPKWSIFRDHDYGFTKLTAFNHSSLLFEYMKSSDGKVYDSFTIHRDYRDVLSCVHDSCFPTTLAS
As to the kind of experiment: Enzymatic test of soluble NPPase from barley leaves: kinetic parameters, substrate specificity, effectors. Conditions: for effect on NPPase activity (inhibition) / hydrolysis by NPPase (substrate recognition): qualitative; for Vmax: Vmax in % in relation to ADPG, NPPase from barley leaves; for Km: substrate of NPPase from barley leaves.

Another experiment has as its target NPPase from rice leaves (Oryza sativa, UniProt Q0X0G2). As to the kind of experiment: Kinetic parameters and substrate specificity of the NPPase from rice leaves. The conditions noted are these: substrate of NPPase from rice leaves.

Sequence of NPPase from rice leaves (Q0X0G2 26-623 limits assumed): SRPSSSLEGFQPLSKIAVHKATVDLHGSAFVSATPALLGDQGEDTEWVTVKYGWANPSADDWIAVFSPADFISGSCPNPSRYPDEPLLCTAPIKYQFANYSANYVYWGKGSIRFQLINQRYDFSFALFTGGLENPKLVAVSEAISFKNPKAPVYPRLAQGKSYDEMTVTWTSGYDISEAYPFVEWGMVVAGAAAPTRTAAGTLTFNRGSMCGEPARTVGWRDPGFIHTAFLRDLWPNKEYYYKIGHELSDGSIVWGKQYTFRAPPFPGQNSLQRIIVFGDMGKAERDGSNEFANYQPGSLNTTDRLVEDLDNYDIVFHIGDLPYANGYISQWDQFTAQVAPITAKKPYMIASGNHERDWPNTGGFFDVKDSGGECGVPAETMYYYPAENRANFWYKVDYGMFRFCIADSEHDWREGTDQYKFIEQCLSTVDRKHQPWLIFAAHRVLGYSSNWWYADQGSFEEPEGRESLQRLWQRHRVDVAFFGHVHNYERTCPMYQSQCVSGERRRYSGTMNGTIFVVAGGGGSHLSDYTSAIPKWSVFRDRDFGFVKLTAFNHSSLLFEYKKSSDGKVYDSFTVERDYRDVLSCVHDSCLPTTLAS

For `O=C(O)[C@H](O)COP(=O)(O)O` [3-phosphoglycerate], in experiment [1], the “effect on NPPase activity (inhibition)” value is “inhibited” and the “hydrolysis by NPPase (substrate recognition)” value (from here on “hydrolysis by NPPase”) was “does not hydrolyse”.
Regarding `Nc1ncnc2c1ncn2[C@@H]1O[C@H](COP(=O)(O)OP(=O)(O)O[C@H]2O[C@H](CO)[C@@H](O)[C@H](O)[C@H]2O)[C@@H](O)[C@H]1O` [ADPG, ADPglucose], in experiment [1], the Vmax came to 100% and the “hydrolysis by NPPase” value is recorded as “catalyses the hydrolysis”.
With `Nc1ncnc2c1ncn2[C@@H]1O[C@H](COP(=O)(O)OP(=O)(O)O)[C@@H](O)[C@H]1O` [ADP], in experiment [1], the Vmax is on record as 40% and the “effect on NPPase activity (inhibition)” value was “inhibited”.
Turning to `Nc1ncnc2c1ncn2[C@@H]1O[C@H](COP(=O)(O)OP(=O)(O)O[C@H]2O[C@H](CO)[C@@H](O)[C@H](O)[C@@H]2O)[C@@H](O)[C@H]1O` [ADPmannose, ADP-mannose], the Vmax in experiment [1] came to 30%.
Regarding `Nc1ncnc2c1ncn2[C@@H]1O[C@H](COP(=O)(O)O)[C@@H](O)[C@H]1O` [AMP], in experiment [1], the “effect on NPPase activity (inhibition)” value is “inhibited” and the “hydrolysis by NPPase” value was “does not hydrolyse”.
`Nc1ncnc2c1ncn2[C@@H]1O[C@H](COP(=O)(O)OS(=O)(=O)O)[C@@H](O)[C@H]1O` [APS, adenosine 5′-phosphosulphate]: at NPPase from rice leaves, the Vmax is recorded as 282 μmol min^−1 (mg protein)^−1.
Take `Nc1ccn([C@@H]2O[C@H](COP(=O)(O)OP(=O)(O)O[C@H]3O[C@H](CO)[C@@H](O)[C@H](O)[C@H]3O)[C@@H](O)[C@H]2O)c(=O)n1` [CDPG, CDP-glucose]: in experiment [1], the Vmax is 114%.
With `O=C[C@H](O)[C@@H](O)[C@H](O)[C@H](O)COP(=O)(O)O` [G6P, glucose-6-phosphate], the “hydrolysis by NPPase” value in experiment [1] is recorded as “does not hydrolyse”.
On the same count and under the same terms, the entry for `Nc1nc2c(ncn2[C@@H]2O[C@H](COP(=O)(O)OP(=O)(O)O[C@H]3O[C@H](CO)[C@@H](O)[C@H](O)[C@H]3O)[C@@H](O)[C@H]2O)c(=O)[nH]1` [GDP-glucose] is “recognizes”.
Consider `Nc1nc2c(ncn2[C@@H]2O[C@H](COP(=O)(O)OP(=O)(O)O[C@H]3O[C@H](CO)[C@@H](O)[C@H](O)[C@@H]3O)[C@@H](O)[C@H]2O)c(=O)[nH]1` [GDPmannose, GDP-mannose], for which the Vmax in experiment [1] is 30%.
For `NC(=O)c1ccc[n+]([C@@H]2O[C@H](COP(=O)([O-])OP(=O)(O)OC[C@H]3O[C@@H](n4cnc5c(N)ncnc54)[C@H](OP(=O)(O)O)[C@@H]3O)[C@@H](O)[C@H]2O)c1` [NADP^+], in experiment [1], the Vmax result is “n.q” and the Km entry was “n.q”.
For `NC(=O)c1ccc[n+]([C@@H]2O[C@H](COP(=O)(O)OP(=O)(O)OC[C@H]3O[C@@H](n4cnc5c(N)ncnc54)[C@H](O)[C@@H]3O)[C@@H](O)[C@H]2O)c1` [NAD^+], in experiment [1], the Vmax stood at 100%.
For the compound `Nc1ncnc2c1ncn2[C@@H]1O[C@H](COP(=O)(O)O)[C@@H](O)[C@H]1O` [PAP, adenosine-5′-phosphate], in experiment [1], the Vmax entry is given as “n.q” and the Km entry is “n.q”.
For `O=[N+]([O-])c1ccc(OP(=O)(O)O)cc1` [PNPP], the Vmax in experiment [1] turned out to be 100%.
For `O=P(O)(O)OP(=O)(O)O` [PPi, inorganic pyrophosphate], at NPPase from rice leaves, the Vmax was 176 μmol min^−1 (mg protein)^−1.
`O=[N+]([O-])c1ccc(OP(=O)(O)Oc2ccc([N+](=O)[O-])cc2)cc1` [bis-PNPP, bis-paranitrophenylphosphate]: in experiment [1], the Vmax is listed as 100% and the “hydrolysis by NPPase” value is given as “hydrolyses”.
Turning to `[O]=[Mo](=[O])([O-])[O-]` [molybdate], the “effect on NPPase activity (inhibition)” value in experiment [1] was “strongly inhibited”.
Consider `OCCS` [β-mercaptoethanol], for which the “effect on NPPase activity (inhibition)” value in experiment [1] is reported as “not affected”.
Take ADP-ribose [ADPribose]: the Vmax in experiment [1] is recorded as 100%.
As for arsenate, the “effect on NPPase activity (inhibition)” value in experiment [1] was “strongly inhibited”.
